Experimental data from publication PMC8797470, “Disruption of the pentraxin 3/CD44 interaction as an efficient therapy for triple‐negative breast cancers” (Clinical and Translational Medicine, 2022).
Ends that are not written are not given here.

How the values were obtained:
[1] = tested on: AKT, NF-κB and ERK1/2 activity in MDA-MB-231 cells; test: Western blot of PTX3-induced signalling; type: cell-based, human; details: with PTX3 treatment
Excerpt: Experimental cells were lysed with radioimmunoprecipitation assay buffer (RIPA) buffer. Specific antibodies including PTX3 (ab90806; Abcam), CEBPD (sc‐636; Santa Cruz Biotechnology), CD44 (GTX83114; GeneTex), α‐tubulin (T6199; Sigma), P84 (GTX70220; GeneTex), RAC1 (GTX100761; GeneTex), CDC42 (GTX100904; GeneTex), AKT (GTX121937; GeneTex), Phospho‐AKT (Ser473) (GTX128414; GeneTex), Phospho‐NF‐κB p65 (Ser536) (#93H1; Cell Signaling), RhoA (ab68826; Abcam), NF‐κB p65 (#3033; Cell Signaling), Phospho‐p38 MAPK (Thr180/Tyr182) (#9211; Cell Signaling), PTEN (ab32199; Abcam), p38 MAPK (#9212; Cell Signaling), Phospho‐SAPK/JNK (Thr183/Tyr185) (#4668; Cell Signaling), Phospho‐p70 S6 Kinase (Thr389) (MABS82; Millipore), Phospho‐PAK1 (Ser199/Ser204) (09‐258; Millipore), SAPK/JNK (#9252; Cell Signaling), Phospho‐p44/42 MAPK (ERK1/2) (Thr202/Tyr204) (#4377; Cell Signaling) and p44/42 MAPK (ERK1/2) (#9102; Cell Signaling) were used for Western blotting.

[2] = target: T1, PTX3/CD44 interaction (Homo sapiens, UniProt P16070); test: Competitive binding ELISA of HRP-conjugated PTX3 to immobilised CD44; details: biotinylated peptide 2 h, then 5 μg/ml HRP-conjugated PTX3 1 h at RT
T1 construct: purchased Sino Biological Inc. (CD44) 12211-H08H
Experimental: Plate wells (9018; Corning Costar) were coated with 10 μg/ml of CD44 (12211‐H08H; Sino Biological Inc.) in PBS (pH 7.2) and then blocking for 1 h with the blocking buffer including 3% milk in PBS. For the stability binding experiments, the PTX3‐devired biotinylated peptides were pre‐incubated in serum for 1, 2, 4 or 6 h. For the binding experiments, the horseradish peroxidase (HRP)‐conjugated recombinant PTX3, PTX3/N, PTX3/C and PTX3NA or PTX3‐devired biotinylated peptides AD9, GR9, P2rdAD9 and P12rdGR9 (32310; LEADGENE) was responded in the well for 2 h. For the peptide of competition experiments, the PTX3‐devired biotinylated peptides RI37 and GI40 were diluted at the indicated concentration in PBS. After 2 h, PBS washed three times and then incubated with 5 μg/ml HRP‐conjugated PTX3 in PBS for 1 h at room temperature (RT). For the antibody competition experiments, Ab‐10 and Ab‐49 were incubated with 5 μg/ml HRP‐conjugated PTX3 in PBS for 2 h at RT. After incubation, the mixtures was responded in the well for 1 h at RT and then PBS washed three times, tetramethyl benzidine (TMB) was used to detect the bound HRP conjugate. After 15 min, the peroxidase reaction was stopped by adding 0.1 M H2SO4. Next, ELISA plate reader was used to detect the optical densities at 450 nm.

[3] = tested on: mCherry fluorescent-expressing MDA-MB-231 cells; test: Orthotopic xenograft of mCherry MDA-MB-231 cells in NOD-SCID mice; type: in vivo, mouse; details: 40 mg/kg peptide every day, intraperitoneal
Excerpt: (§1) For the animal model, MB‐Luc2 cells were mixed with human BCAFs xenografts: 1 × 10^5 MB‐Luc2 were mixed with either 1 × 10^5 BCAFs carrying a control knockdown vector (shCtl‐BCAFs), or 1 × 10^5 BCAFs carrying a CEBPD knockdown vector (shCD‐BCAFs), or 1 × 10^5 BCAFs carrying a PTX3 knockdown vector (shP‐BCAFs). The cell mixtures were inoculated into the mammary fat pads of NOD‐SCID mice. In peptide treatment experiments, NOD‐SCID mice were orthotopically inoculated with 1 × 10^6 mCherry fluorescent‐expressing MDA‐MB‐231 cells into the mammary fat pad. Similarly, 5 × 10^5 mCherry fluorescent‐expressing 4T1 cells were orthotopically inoculated into BALB/c mice in the mammary fat pad. Once tumours reached to the mean of 50 mm^3, the mice were administered 40 mg/kg of peptides RI37, GI40, P2rdAD9 or P12rdGR9 every day by intraperitoneal injection. For paclitaxel treatment, 30 mg/kg of paclitaxel was administered to the experimental mice once a week. […] The images of in vivo bioluminescence and metastasis quantification of the lung and brain were analysed by a Xenogen IVISR Spectrum Noninvasive Quantitative Molecular Imaging System. […] After that, tumour volume was mathematically determined by using the standard formula: […], where l represents the length and w represents the width of the tumour. […] After, the number of nodules on the lung surface was measured. […]

[4] = tested on: mCherry fluorescent-expressing 4T1 cells; test: Orthotopic allograft of mCherry 4T1 cells in BALB/c mice; type: in vivo, mouse; details: 40 mg/kg peptide every day, intraperitoneal
Excerpt: as §1

[5] = tested on: MDA-MB-231 cells; test: Transwell migration and Matrigel invasion assays; type: cell-based, human; details: with PTX3 treatment, 18 h
Excerpt: In migration assay, MDA‐MB‐231 cells seeded in 8.0 μm pore polycarbonate membrane inserts (BD Biosciences) in 24‐well plates. In Matrigel invasion assay, inserts were pre‐coated with an appropriate amount of Matrigel first, and the same number of cells seeded on the Matrigel. After cells adhered on the inserts, serum‐free DMEM medium added in the upper wells. Serum‐free medium containing the treatments of TGF‐β1, PTX3, PTX3NA, PTX3/N, PTX3/C, RI37, GI40, AD9, GR9, IgG1κ, PTX3 Ab‐10 or PTX3 Ab‐49 were then mixed into the lower wells of the 24‐well plates. After incubating for 18 h, cells outside the insert were removed by wiping. The inside the inserts were then stained by 4′,6‐diamidino‐2‐phenylindol (DAPI). Fluorescence microscope was used for counting the total number of migrated cells with 200× magnification. Different from the experimental design for the MDA‐MB‐231 cells, the migrated 4T1‐Luc2 cells in the inside of the insert were detected by luciferase activity.

T1 sequence (P16070 21-220 limits assumed): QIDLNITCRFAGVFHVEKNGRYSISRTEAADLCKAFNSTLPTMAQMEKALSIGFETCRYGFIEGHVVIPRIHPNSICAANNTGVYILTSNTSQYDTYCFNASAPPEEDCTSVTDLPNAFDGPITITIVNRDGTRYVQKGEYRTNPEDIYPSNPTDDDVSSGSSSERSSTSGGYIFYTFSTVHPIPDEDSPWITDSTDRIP

Row | binding of PTX3 and CD44 in competition with peptide [2] | Substance | PTX3-induced AKT, NF-κB and ERK1/2 activity (signalling pathways) [1] | tumour growth and metastasis [3] | tumour growth and metastasis [4] | PTX3-induced migration and invasion [5]
1 | attenuated | GI40: peptide, PTX3 amino acids 320–359 (GGGFDETLAFSGRLTGFNIWDSVLSNEEIRETGGAESCHI; also: biotin, position not given here) | suppressed | suppressed | suppressed | suppressed
2 | attenuated | RI37: peptide, PTX3 amino acids 200–236 (RPMRLESFSACIWVKATDVLNKTILFSYGTKRNPYEI; also: biotin, position not given here) | suppressed | suppressed | suppressed | suppressed
